From patent US20250312469A1 (CANGET BIOTEKPHARMA, priority 2024, published 2025)
“And” between values parts separate entries of the source, which are not always exact repeats. Identical values can stand only once.

Assays:
[1] = in vitro; details: both, human, s9
[2] = test system: L5178Y TK+/− mouse lymphoma cells; assay: Mouse Lymphoma Assay (MLA); details: for Avg. MF (Mutant Frequency) / Avg. SG: 24 h treatment, −S9
Method: The cells were prepared in Fischer's or RPMI media supplemented with 10% heat-inactivated horse serum, penicillin-streptomycin, Lglutamine, sodium pyruvate and Pluronic F68. In the initial assay, prior to use in the test, the culture was purged of preexisting TK−/− mutations by exposure to THMG treated medium for 1 day, followed by a transfer to THG medium for 1 to 2 days. This was performed 5 to 8 days prior to testing. In the expanded assay a vial of frozen cells was thawed and used within 5 to 8 days of growth. No washing was needed because the cells were purged of preexisting TK−/− mutations by exposure to THMG treated medium for 1 day and then THG medium for 1 day prior to freezing. […] Colonies were counted using an automated colony counter or manually. After 4 or 24 hours of exposure, the cells were grown for recovery and expression for approximately 48 hours before plated in TFT cloning media. A second set of plates were prepared without TFT to assess viability of cells following treatment. […] Colonies observed on the TFT plate were defined as small or large colonies. […] (3) Of note, the metabolic activation system in this assay consisted of a rat liver homogenate (S-9 microsomal fraction), which was delivered to the test system in the presence of a core mix consisting of NADP and cofactors for NADPH-supported oxidation. The S9 was prepared using the following recipe (per treatment tube); 1 mL of 20 mg/mL S9, 32 mg of NADP, 60 mg of isocitric acid, 40 μL of calcium chloride (CaCl2) and 3.0 mL of cell cultural media. All treatments were performed in duplicate. The treatment tubes were placed in a CO2 incubator at 37±1° C. with continuous agitation.

[3] = Blood partitioning; details: human whole blood
[4] = test system: CYP2B6 mRNA; assay: CYP induction (mRNA) in fresh human hepatocytes; details: human
From the text: (§1) (2) CYP positive inducers (Table 58a) and Williams' Medium E (WME) were purchased from Sigma-Aldrich (St. Louis, MO, USA). Dulbecco's phosphate-buffered saline (DPBS, pH 7.4) was purchased from Invitrogen (Carlsbad, CA, USA). Hepatocyte culture medium (serum-free) for CYP induction was purchased from XenoTech (catalog #K2300, Lenexa, KS, USA). The CellTiter 96 AQueous ONE Solution Cell Proliferation Assay was obtained from Promega (Madison, WI, USA). All other chemicals and reagents were of analytical grade or higher. (3) Fresh human hepatocytes (Table 58b) seeded at ˜0.15 million cells/well in 48-well plates (˜0.75 million cells/mL) were purchased from Thermo Fisher Scientific (Grand Island, NY, USA) and BioreclamationIVT (Baltimore, MD, USA).
(§2) Vehicle controls were treated in parallel with hepatocyte culture medium. […] (2) After the CYP induction treatment, the cells were used for a cell viability assay. […] The absorbance of formazan, which is proportional to the number of viable cells, was measured spectrophotometrically using the CellTiter 96 AQueous ONE Solution Cell Proliferation Assay. […] (3) Total RNA was isolated from the treated cells using the RNeasy mini kit (Qiagen, Valencia, CA, USA) and treated with RNase-free DNase (Qiagen) following the manufacturer's protocols. The concentration of RNA was determined using a Qubit Fluorometer with a Qubit RNA HS assay kit (Invitrogen). cDNA was synthesized from up to 1 μg of the total RNA harvested from the cells using a QuantiTect RT kit (Qiagen). Analysis of gene expression by qPCR was performed using the LightCycler 480 System (Roche Diagnostics Corporation, Indianapolis, IN, USA).

[5] = test system: human hepatocytes; assay: Cell viability (MTS) after CYP induction treatment; details: donor 2, control inducers (OME, PB, RIF)
Method: as §2

[6] = biological target: T1, CYP2B6 (Homo sapiens, UniProt P20813); assay: in vitro; details: human, microsomes, pH 7.4
T1 sequence (P20813 1-491): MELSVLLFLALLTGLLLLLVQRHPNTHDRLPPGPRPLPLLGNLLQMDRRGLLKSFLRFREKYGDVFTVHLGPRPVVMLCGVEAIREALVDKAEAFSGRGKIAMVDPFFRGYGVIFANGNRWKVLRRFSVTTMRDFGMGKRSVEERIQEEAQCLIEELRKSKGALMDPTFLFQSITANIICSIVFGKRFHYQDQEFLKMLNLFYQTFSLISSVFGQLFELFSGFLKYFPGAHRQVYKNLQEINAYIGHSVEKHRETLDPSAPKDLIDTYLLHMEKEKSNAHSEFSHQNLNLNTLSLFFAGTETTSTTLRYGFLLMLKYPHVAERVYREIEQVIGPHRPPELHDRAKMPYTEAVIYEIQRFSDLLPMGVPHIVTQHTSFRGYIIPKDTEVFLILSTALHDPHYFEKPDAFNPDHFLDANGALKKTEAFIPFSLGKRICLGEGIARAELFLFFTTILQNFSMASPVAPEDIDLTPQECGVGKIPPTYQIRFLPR
Method: (§3) The CYP reaction was initiated by adding a CYP probe substrate and incubating at 37° C. for 10-20 minutes, depending on the individual CYP isoform. The reaction was terminated with the addition of 400 μL ice-cold acetonitrile (ACN). […] Positive controls were performed in parallel using a known inhibitor of the individual CYP isoform. […] The samples were then transferred to 96-well plates and analyzed by LC-MS/MS (Appendix 1).

[7] = biological target: DDX5 (Homo sapiens, UniProt P17844); assay: Isothermal titration calorimetry (ITC), Flag-DDX5; format: binding; details: ITC, 25° C., 1×PBS pH7.4 with 8% DMSO
[8] = in vitro
[9] = Liver microsome stability; details: human liver microsome; control compound
[10] = HPβCD-FL118 complex dissolution test; format: physicochemical; details: 37° C.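 Further: 20 mL buffer stirred at 100 rpm.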
Method: The collected samples were analyzed for the concentrations of the supernatants by HPLC.

[11] = biological target: P-gp (Homo sapiens, UniProt P08183); details: Caco-2; digoxin as substrate; 1.0 μM FL118 or 1.0 μM Valspodar
[12] = test system: CYP1A2 mRNA; assay: CYP induction (mRNA) in fresh human hepatocytes; details: human, 3 days, 50 µM
From the text: as §1, §2

[13] = test system: CYP3A; assay: in vitro; details: human, microsomes, pH 7.4
Method: as §3

[14] = test system: CRPC LAPC9 tumors; assay: LAPC9 CRPC tumor model; format: in vivo, SCID mice; details: 10 mg/kg i.p., 6 times over 2 weeks

Chain of P-gp (P08183 whole entry): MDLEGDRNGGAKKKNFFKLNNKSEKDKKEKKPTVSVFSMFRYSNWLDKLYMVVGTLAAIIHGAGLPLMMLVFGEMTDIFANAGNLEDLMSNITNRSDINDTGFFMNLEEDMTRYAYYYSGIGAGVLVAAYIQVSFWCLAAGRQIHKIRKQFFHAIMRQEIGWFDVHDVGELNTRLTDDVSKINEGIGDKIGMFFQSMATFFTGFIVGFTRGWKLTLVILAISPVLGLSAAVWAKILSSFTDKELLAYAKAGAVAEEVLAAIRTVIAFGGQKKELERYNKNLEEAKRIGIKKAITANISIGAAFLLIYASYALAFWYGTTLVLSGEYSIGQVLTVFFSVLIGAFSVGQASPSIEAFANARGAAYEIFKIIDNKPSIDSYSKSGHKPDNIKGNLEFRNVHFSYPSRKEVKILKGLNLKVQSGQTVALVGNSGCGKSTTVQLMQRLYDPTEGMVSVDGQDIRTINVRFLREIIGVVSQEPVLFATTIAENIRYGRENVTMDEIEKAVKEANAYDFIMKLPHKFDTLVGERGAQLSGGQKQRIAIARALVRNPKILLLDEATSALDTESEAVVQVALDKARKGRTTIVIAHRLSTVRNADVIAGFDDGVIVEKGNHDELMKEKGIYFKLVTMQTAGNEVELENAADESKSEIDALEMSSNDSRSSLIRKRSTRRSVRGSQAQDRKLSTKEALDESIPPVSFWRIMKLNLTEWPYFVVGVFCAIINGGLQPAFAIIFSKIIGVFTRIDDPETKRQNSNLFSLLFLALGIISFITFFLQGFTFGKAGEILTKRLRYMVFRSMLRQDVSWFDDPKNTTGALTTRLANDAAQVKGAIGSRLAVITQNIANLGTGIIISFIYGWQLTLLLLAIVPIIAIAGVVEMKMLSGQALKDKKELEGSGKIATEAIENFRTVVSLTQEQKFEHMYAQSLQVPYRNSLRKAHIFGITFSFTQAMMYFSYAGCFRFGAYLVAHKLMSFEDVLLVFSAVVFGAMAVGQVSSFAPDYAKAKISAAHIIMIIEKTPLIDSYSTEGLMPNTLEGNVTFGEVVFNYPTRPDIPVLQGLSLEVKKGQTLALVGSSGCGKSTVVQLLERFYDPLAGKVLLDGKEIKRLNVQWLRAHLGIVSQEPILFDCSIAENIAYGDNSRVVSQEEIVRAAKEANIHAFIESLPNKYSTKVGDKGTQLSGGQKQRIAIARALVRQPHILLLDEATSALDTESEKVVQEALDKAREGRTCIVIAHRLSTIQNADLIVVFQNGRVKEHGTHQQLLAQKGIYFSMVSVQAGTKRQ
Chain of DDX5 (P17844 whole entry): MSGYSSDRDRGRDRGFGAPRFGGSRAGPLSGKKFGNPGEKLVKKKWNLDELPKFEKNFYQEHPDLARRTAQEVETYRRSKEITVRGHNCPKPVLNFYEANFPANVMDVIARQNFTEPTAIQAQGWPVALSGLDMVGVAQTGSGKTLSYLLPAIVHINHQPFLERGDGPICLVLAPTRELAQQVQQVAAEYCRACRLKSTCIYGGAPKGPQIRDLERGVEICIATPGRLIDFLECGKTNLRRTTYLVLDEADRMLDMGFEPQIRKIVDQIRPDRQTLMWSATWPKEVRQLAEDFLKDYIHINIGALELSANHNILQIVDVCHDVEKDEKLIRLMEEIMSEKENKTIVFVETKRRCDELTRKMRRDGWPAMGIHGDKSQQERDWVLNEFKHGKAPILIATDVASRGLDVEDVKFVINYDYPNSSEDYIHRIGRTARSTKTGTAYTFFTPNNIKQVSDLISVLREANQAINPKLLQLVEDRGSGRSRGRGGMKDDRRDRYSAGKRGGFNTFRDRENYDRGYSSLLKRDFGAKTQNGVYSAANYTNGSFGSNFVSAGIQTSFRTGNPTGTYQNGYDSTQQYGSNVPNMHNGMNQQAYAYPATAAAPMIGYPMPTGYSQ

O=c1ccc2ccc(O)cc2o1 [7-hydroxycoumarin, reference compound]
microsomal CLint [1]: 57.3 µL/min/mg

CC[C@@]1(O)C(=O)OCc2c1cc1n(c2=O)Cc2cc3cc4c(cc3nc2-1)OCO4 [Test Article]
Avg. MF (Mutant Frequency) ([2]; Test Article 0.1 uM): 345 mutants/1×10^6 cells
Avg. SG ([2]; Test Article 0.1 uM): 29.1
Avg. MF (Mutant Frequency) ([2]; Test Article .01 uM): 125 mutants/1×10^6 cells
Avg. SG ([2]; Test Article .01 uM): 66.2

NS(=O)(=O)c1cc(C2(O)NC(=O)c3ccccc32)ccc1Cl (stereo not shown) [Chlorthalido]
RBC to Plasma Partitioning (KRBC/P) [3]: 19.7

O=P1(N(CCCl)CCCl)NCCCO1 (stereo not shown) [cyclophosphamide (CP), cyclophosphamide]
Average SG ([2]; 4 h, +S9, 15 μg/mL): 7.3
Day 1 Growth Cell Conc. ([2]; 4 h, +S9, 15 μg/mL): 4.79E+05 Cell/mL and 5.44E+05 Cell/mL
Day 2 Growth Cell Conc. ([2]; 4 h, +S9, 15 μg/mL): 1.29E+06 Cell/mL and 1.30E+06 Cell/mL
Relative Suspension Growth (%) ([2]; 4 h, +S9, 15 μg/mL): 52.7% and 58.8%
Suspension Growth (SG) ([2]; 4 h, +S9, 15 μg/mL): 5.9 and 7.7
Average SG ([2]; 4 h, +S9, 17.5 μg/mL): 4.9
Day 1 Growth Cell Conc. ([2]; 4 h, +S9, 17.5 μg/mL): 3.20E+05 Cell/mL and 3.86E+05 Cell/mL
Day 2 Growth Cell Conc. ([2]; 4 h, +S9, 17.5 μg/mL): 1.14E+06 Cell/mL and 1.25E+06 Cell/mL
Relative Suspension Growth (%) ([2]; 4 h, +S9, 17.5 μg/mL): 32.1% and 42.0%
Suspension Growth (SG) ([2]; 4 h, +S9, 17.5 μg/mL): 4.2 and 5.5
Avg. % of IMF Small Colony ([2]; 4 h summary, +S9, 15 μg/mL): 62.1%
Avg. IMF ([2]; 4 h summary, +S9, 15 μg/mL): 1000 ×10^−6
Avg. IMF Small Colony ([2]; 4 h summary, +S9, 15 μg/mL): 621 ×10^−6
Avg. RTG ([2]; 4 h summary, +S9, 15 μg/mL): 21.6%
Avg. % of IMF Small Colony ([2]; 4 h summary, +S9, 17.5 μg/mL): 58.6%
Avg. IMF ([2]; 4 h summary, +S9, 17.5 μg/mL): 1513 ×10^−6
Avg. IMF Small Colony ([2]; 4 h summary, +S9, 17.5 μg/mL): 880 ×10^−6
Avg. RTG ([2]; 4 h summary, +S9, 17.5 μg/mL): 6.7%

CCC1(c2ccccc2)C(=O)NC(=O)NC1=O [Phenobarbital (PB), Phenobarbital, reference compound]
% of PB-treated Cells [4]: 100%

CO[C@H]1/C=C/O[C@@]2(C)Oc3c(C)c(O)c4c(O)c(c(/C=N/N5CCN(C)CC5)c(O)c4c3C2=O)NC(=O)/C(C)=C\C=C\[C@H](C)[C@H](O)[C@@H](C)[C@@H](O)[C@@H](C)[C@H](OC(C)=O)[C@@H]1C [Rifampicin (RIF), Rifampicin, reference compound]
Formazan Absorbance Mean [5]: 1.37

COS(C)(=O)=O [methyl methanesulfonate (MMS), methyl methanesulfonate]
Average SG ([2]; mouse, 24 h, 5 μg/mL): 48.2
Avg. % of IMF Small Colony ([2]; mouse, 24 h, 5 μg/mL): 52.4%
Avg. IMF (Induced Mutant Frequency) ([2]; mouse, 24 h, 5 μg/mL): 458 mutants/1×10^6 cells
Avg. IMF Small Colony ([2]; mouse, 24 h, 5 μg/mL): 240 mutants/1×10^6 cells
Avg. RTG (Relative Total Growth) ([2]; mouse, 24 h, 5 μg/mL): 38.7%
Relative Suspension Growth (%) ([2]; mouse, 24 h, 5 μg/mL): 62.5%
Average SG ([2]; mouse, 24 h, 8 μg/mL): 26.2
Avg. % of IMF Small Colony ([2]; mouse, 24 h, 8 μg/mL): 54.7%
Avg. IMF (Induced Mutant Frequency) ([2]; mouse, 24 h, 8 μg/mL): 750 mutants/1×10^6 cells
Avg. IMF Small Colony ([2]; mouse, 24 h, 8 μg/mL): 417 mutants/1×10^6 cells
Avg. RTG (Relative Total Growth) ([2]; mouse, 24 h, 8 μg/mL): 15.5%

S=P(N1CC1)(N1CC1)N1CC1 [Thio-TEPA]
% Inhibition (Positive Control) [6]: 71.5%

CC[C@@]1(O)C(=O)OCc2c1cc1n(c2=O)Cc2cc3c(CN(C)C)c(O)ccc3nc2-1 [topotecan, reference compound]
Kd [7]: ≥ 1.08 µM

C[C@]12CC[C@H]3[C@@H](CCC4=CC(=O)CC[C@@]43C)[C@@H]1CC[C@@H]2O [testosterone, reference compound]
hepatocyte CLint ([8]; both, human, hepatocytes, pH 7.4): 212 µL/min/1e6 cells
half-life ([8]; cryopreserved human hepatocytes, control compound): 2.2 min
CLint [9]: 0.0478 ml/min/mg protein
half-life [9]: 29 min
microsomal CLint [1]: 20.7 µL/min/mg

CC[C@@]1(O)C(=O)OCc2c1cc1n(c2=O)Cc2cc3cc4c(cc3nc2-1)OCO4 [API]
Concentration (dissolution) ([10]; pH 1.2, 5 min): 430 ng/mL
Concentration (dissolution) ([10]; pH 1.2, 10 min): 1550 ng/mL
Concentration (dissolution) ([10]; pH 1.2, 15 min): 470 ng/mL
Concentration (dissolution) ([10]; pH 1.2, 30 min): 640 ng/mL
Concentration (dissolution) ([10]; pH 1.2, 45 min): 510 ng/mL
Concentration (dissolution) ([10]; pH 1.2, 60 min): 1430 ng/mL
Concentration (dissolution) ([10]; pH 1.2, 90 min): 1360 ng/mL
Concentration (dissolution) ([10]; pH 1.2, 120 min): 4470 ng/mL
Concentration (dissolution) ([10]; pH 6.8, 5 min): 960 ng/mL
Concentration (dissolution) ([10]; pH 6.8, 10 min): 190 ng/mL
Concentration (dissolution) ([10]; pH 6.8, 15 min): 310 ng/mL
Concentration (dissolution) ([10]; pH 6.8, 30 min): 1110 ng/mL
Concentration (dissolution) ([10]; pH 6.8, 45 min): 310 ng/mL
Concentration (dissolution) ([10]; pH 6.8, 60 min): 900 ng/mL
Concentration (dissolution) ([10]; pH 6.8, 90 min): 970 ng/mL
Concentration (dissolution) ([10]; pH 6.8, 120 min): 1430 ng/mL

C/C=C/C[C@@H](C)C(=O)[C@H]1C(=O)N[C@@H](C(C)C)C(=O)N(C)CC(=O)N(C)[C@@H](CC(C)C)C(=O)N[C@@H](C(C)C)C(=O)N(C)[C@@H](CC(C)C)C(=O)N[C@@H](C)C(=O)N[C@H](C)C(=O)N(C)[C@@H](CC(C)C)C(=O)N(C)[C@@H](CC(C)C)C(=O)N(C)[C@@H](C(C)C)C(=O)N1C [valspodar, reference compound]
P-gp Inhibition Potential Classification [11]: Positive (ER≥2.0 without inhibitor, and reduced by ≥50% with inhibitor: Positive)

COc1ccc2[nH]c([S+]([O-])Cc3ncc(C)c(OC)c3C)nc2c1 (stereo not shown) [Omeprazole (OME), Omeprazole, reference compound]
% of OME-treated Cells [12]: 100%

CC(=O)N1CCN(c2ccc(OCC3COC(Cn4ccnc4)(c4ccc(Cl)cc4Cl)O3)cc2)CC1 (stereo not shown) [Ketoconazole]
% Inhibition (Positive Control) [13]: 94.5%

CNC(=O)c1ccc(N2C(=S)N(c3ccc(C#N)c(C(F)(F)F)c3)C(=O)C2(C)C)cc1F [Enza, enzalutamide, reference compound]
antitumor efficacy [14]: not sensitive to Enza
